17 compounds from patent US6596772B1, “Phosphate mimics and methods of treatment using phosphatase inhibitors” (Sugen, Inc., priority 1999, dated 2003) can be followed below.

Broadly, the IC50 is the concentration at which inhibition is half-maximal.

Read-outs that look alike come from different tables or passages of the source. Some results are limits rather than exact numbers.

What all share (experiment): PTP IC50 assay, pNPP or FDP as substrate
Holding throughout (assay type): biochemical

The target in one assay is T1, PTP MU (Homo sapiens, UniProt P28827).
T1 construct: made in house; host or cells: E. coli BL-21 (pGEX 6P-1)
T1 sequence (P28827 831-1186 limits assumed): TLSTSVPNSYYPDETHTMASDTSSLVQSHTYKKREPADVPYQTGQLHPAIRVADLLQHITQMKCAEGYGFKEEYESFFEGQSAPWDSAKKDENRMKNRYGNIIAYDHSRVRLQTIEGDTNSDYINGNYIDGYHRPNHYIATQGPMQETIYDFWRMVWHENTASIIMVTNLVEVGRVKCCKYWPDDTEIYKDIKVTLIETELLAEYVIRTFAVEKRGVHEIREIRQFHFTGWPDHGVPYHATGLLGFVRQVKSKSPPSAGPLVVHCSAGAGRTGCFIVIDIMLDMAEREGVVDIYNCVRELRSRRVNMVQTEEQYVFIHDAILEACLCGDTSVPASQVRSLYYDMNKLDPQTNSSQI
Here is the method:
(§1) The following in vitro assay procedure is preferred to determine the level of activity and effect of the different compounds of the present invention on one or more of the PTPs. Similar assays can be designed along the same lines for any PTP using techniques well known in the art.
(§2) The catalytic assays described herein are performed in a 96-well format. The general procedure begins with the determination of PTP optimal pH using a three-component buffer system that minimizes ionic strength variations across a wide range of buffer pH. Next, the Michaelis-Menten constant, or Km, is determined for each specific substrate-PTP system. This Km value is subsequently used as the substrate reaction concentration for compound screening. Finally, the test PTP is exposed to varying concentrations of compound for fifteen minutes and allowed to react with substrate for ten minutes. The results are plotted as percent inhibition versus compound concentration and the IC50 interpolated from the plot.
(§3) All assays were performed using pNPP or FDP as substrate. The optimum pH was determined for each PTP used.
(§4) PTPase activity was assayed at 25° C. in a 100-μl reaction mixture containing an appropriate concentration of pNPP or FDP as substrate. The reaction was initiated by addition of the PTP and quenched after 10 min by addition of 50 μl of IN NaOH. The non-enzymatic hydrolysis of the substrate was corrected by measuring the control without the addition of the enzyme. The amount of p-nitrophenol produced was determined from the absorbance at 410 nm. To determine the kinetic parameter, Km, the initial velocities were measured at various substrate concentrations and the data were fitted to the Michaelis equation where velocity=(Vmax*[S])/(Km+[S]), and [S]=substrate reaction concentration.
(§5) The effect of the compounds on PTP was evaluated at 25° C. using pNPP or FDP as substrate. PTP was pre-incubated for fifteen minutes with various concentrations of compound. Substrate was then added at a fixed concentration (usually equal to the Km previously calculated). After 10 minutes, NaOH was added to stop the reaction. The hydrolysis of pNPP was followed at 410 nm on the Biotek Powerwave 200 microplate scanning spectrophotometer. The percent inhibition was calculated as follows: Percent Inhibition=[(control signal−compound signal)/control signal] ×100%. The IC50 was then determined by interpolation of a percent inhibition versus compound concentration plot.
(§6) Plasmids designed for bacterial GST-PTP fusion protein expression were derived by insertion of PCR-generated human PTP fragments into pGEX vectors (Pharmacia Biotech). Several of these constructs were then used to subclone phosphatases into pFastBac-1for expression in Sf-9 insect cells. Oligonucleotides used for the initial amplification of PTP genes are shown below. The cDNAs were prepared using the Gilbo BRL superscript preamplification system on RNAs purchased from Clontech.
The PTP Mu cDNA was amplified from a human lung cDNA library (Clontech) using the following oligonucleotides; 5′oligo: 5′-[…]-3′ (SEQ ID NO: 18) 3′oligo: 5′-[…]-3′ (SEQ ID NO: 19) It was subsequently ligated into the Eco RI/Xho I sites of pGEX 6P-1.

A further assay addresses T2, PTP SHP2 (Homo sapiens, UniProt Q06124).
T2 construct: The catalytic domain was amplified using the following oligonucleotides; made in house; host or cells: Sf-9 insect cells (pFastBac-G2T)
T2 sequence (Q06124 247-517 limits assumed): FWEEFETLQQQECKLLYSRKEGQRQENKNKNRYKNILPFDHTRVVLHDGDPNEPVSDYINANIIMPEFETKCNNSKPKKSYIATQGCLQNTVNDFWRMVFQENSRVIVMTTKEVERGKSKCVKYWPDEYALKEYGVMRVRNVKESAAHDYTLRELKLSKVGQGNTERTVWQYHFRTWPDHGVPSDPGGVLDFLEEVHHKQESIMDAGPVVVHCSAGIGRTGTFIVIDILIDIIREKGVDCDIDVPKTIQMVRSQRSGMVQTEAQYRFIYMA
The protocol:
as §1, §2, §3, §4, §5, §6
SHP-2 cDNA was used as described earlier (Vogel W., et al.,1993, Science, 259:1611-4). The catalytic domain was amplified using the following oligonucleotides 5′oligo: 5′-[…]-3′ (SEQ ID NO: 2) 3′oligo: 5′-[…]-3′ (SEQ ID NO: 3) and subsequently subcloned into BamH1-Xba-1 sites. It was then ligated into pfas Bac-G2T BamH1-Xba-1 sites.

The next assay addresses T3, PTP 1B (Homo sapiens, UniProt P18031).
T3 construct: made in house; host or cells: Sf-9 insect cells (pFastBac-G2T)
T3 sequence (P18031 1-435): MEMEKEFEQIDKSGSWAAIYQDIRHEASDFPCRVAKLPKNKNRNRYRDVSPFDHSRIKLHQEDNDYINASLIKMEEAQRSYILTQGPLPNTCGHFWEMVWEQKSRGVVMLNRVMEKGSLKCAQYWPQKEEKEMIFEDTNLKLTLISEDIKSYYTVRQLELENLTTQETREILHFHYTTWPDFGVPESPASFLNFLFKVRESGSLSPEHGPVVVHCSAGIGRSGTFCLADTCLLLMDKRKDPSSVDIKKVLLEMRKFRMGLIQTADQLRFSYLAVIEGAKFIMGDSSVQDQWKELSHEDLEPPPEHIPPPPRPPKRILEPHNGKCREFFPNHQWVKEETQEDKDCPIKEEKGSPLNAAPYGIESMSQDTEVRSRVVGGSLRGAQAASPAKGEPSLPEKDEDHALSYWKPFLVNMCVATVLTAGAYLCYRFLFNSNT
Here is the method:
as §1, §2, §3, §4, §5, §6
The PTP1b cDNA was amplified from human placenta single strand cDNA (Clontech RNA) using the following oligonucleotides: 5′oligo: 5′-[…] (SEQ ID NO: 4) 3′oligo: 5′-[…] (SEQ ID NO: 5) It was subsequently ligated into pFasBac G2TBamH1Xba-1 sites.

Setting [1] is: pNPP or FDP as substrate, 25° C., read-out: PTP IC50 Mu.
The mark [2] stands for this setting: pNPP or FDP as substrate, 25° C., read-out: PTP IC50 SHP2.
[3] abbreviates: pNPP or FDP as substrate, 25° C., read-out: PTP IC50 1B.
Where [4] appears, read: comparison of R groups, read-out: IC50 Mu.
[5] abbreviates: comparison of R groups, read-out: IC50 SHP2.
Setting [6] is: comparison of R groups, read-out: IC50 1B.

For “1-(4-Aminophenoxy)-4-trifluoromethylsulfonamidophenoxy benzene [Example 72]”, the figures for the IC50 on PTP MU (setting [1]), on PTP SHP2 (setting [2]) and on PTP 1B (setting [3]) were over 100 µM, 17 µM and 28.2 µM, respectively.
Take `O=[N+]([O-])c1cc(S(=O)(=O)C(F)(F)F)ccc1OC1CCC(Oc2ccc(S(=O)(=O)C(F)(F)F)cc2[N+](=O)[O-])C1` (mixture of isomers) [Example 12, 1,3-Bis-(2-nitro-4-trifluoromethanesulfonyl-phenoxy)-cyclopentane]: the IC50 at PTP MU (setting [1]) was over 100 µM; on PTP SHP2 (setting [2]), 79.8 µM; at PTP 1B (setting [3]), over 100 µM.
As for `CS(=O)(=O)Nc1ccc(Oc2ccc(Oc3ccc(NS(C)(=O)=O)cc3)cc2)cc1` [CH3SO2NH—], the IC50 at PTP MU (setting [4]) was over 100 µM; on PTP SHP2 (setting [5]), 33.6 µM; on PTP 1B (setting [6]) it was 51.9 µM.
For `O=[N+]([O-])c1cc(S(=O)(=O)C(F)(F)F)ccc1SSc1ccc(S(=O)(=O)C(F)(F)F)cc1[N+](=O)[O-]` [Example 8, Bis-(2-nitro-4-trifluoromethylsulfonylphenyl) disulfide], the IC50 on PTP MU (setting [1]) is over 100 µM; on PTP SHP2 (setting [2]) it was 37 µM; at PTP 1B (setting [3]), 46.8 µM.
As to `COC(=O)c1cc(Oc2ccc(S(=O)(=O)C(F)(F)F)cc2)cc(Oc2ccc(S(=O)(=O)C(F)(F)F)cc2)c1` [Example 9, 3,5-Bis-(4-trifluoromethanesulfonyl-phenoxy)-benzoic acid methyl ester], the IC50 at PTP MU (setting [1]), on PTP SHP2 (setting [2]) and on PTP 1B (setting [3]) was over 100 µM throughout.
Turning to `COC(=O)Cc1cc(Oc2ccc(S(=O)(=O)C(F)(F)F)cc2[N+](=O)[O-])cc(Oc2ccc(S(=O)(=O)C(F)(F)F)cc2[N+](=O)[O-])c1` [Example 10, [3,5-Bis-(2-nitro-4-trifluoromethanesulfonyl-phenoxy)-phenyl]-acetic acid methyl ester], the IC50 at PTP MU (setting [1]), on PTP SHP2 (setting [2]) and on PTP 1B (setting [3]) was over 100 µM in each case.
Consider `COC(=O)c1cc(Oc2ccc(S(=O)(=O)C(F)(F)F)cc2[N+](=O)[O-])cc(Oc2ccc(S(=O)(=O)C(F)(F)F)cc2[N+](=O)[O-])c1` [Example 11, 3,5-Bis-(2-nitro-4-trifluoromethanesulfonyl-phenoxy)-benzoic acid methyl ester], for which the IC50 on PTP MU (setting [1]), at PTP SHP2 (setting [2]) and on PTP 1B (setting [3]) was over 100 µM each time.
As for `COC(=O)c1c(Oc2ccc(S(=O)(=O)C(F)(F)F)cc2[N+](=O)[O-])cc(C)cc1Oc1ccc(S(=O)(=O)C(F)(F)F)cc1[N+](=O)[O-]` [Example 13, 4-Methyl-2,6-bis-(2-nitro-4-trifluoromethanesulfonyl-phenoxy)-benzoic acid methyl ester], the results for the IC50 on PTP MU (setting [1]), on PTP SHP2 (setting [2]) and at PTP 1B (setting [3]) were 76 µM, over 100 µM and over 100 µM, respectively.
On to `COC(=O)c1ccc(OCCOc2ccc(S(=O)(=O)C(F)(F)F)cc2[N+](=O)[O-])cc1` [Example 14, 4-[2-(2-nitro-4-trifluoromethanesulfonyl-phenoxy)-ethoxy]-benzoic acid methyl ester], for which the IC50 on PTP MU (setting [1]), on PTP SHP2 (setting [2]) and at PTP 1B (setting [3]) was over 100 µM each time.
In the case of `O=C(O)c1ccc(Oc2cccc(Oc3ccc(S(=O)(=O)C(F)(F)F)cc3[N+](=O)[O-])c2)cc1` [Example 15, 4-[3-(2-Nitro-4-trifluoromethanesulfonyl-phenoxy)-phenoxy]-benzoic acid], the values for the IC50 at PTP MU (setting [1]), at PTP SHP2 (setting [2]) and on PTP 1B (setting [3]) were 15.5 µM, 10.7 µM and 15.7 µM, respectively.
As to `COC(=O)c1cc(Oc2ccc(S(=O)(=O)C(F)(F)F)cc2[N+](=O)[O-])n(-c2cc(C(F)(F)F)cc(C(F)(F)F)c2)n1` [Example 16, 1-(3,5-Bis-trifluoromethyl-phenyl)-5-(2-nitro-4-trifluoromethanesulfonyl-phenoxy)-1H-pyrazole-3-carboxylic acid methyl ester], the IC50 on PTP MU (setting [1]), at PTP SHP2 (setting [2]) and at PTP 1B (setting [3]) was over 100 µM each time.
With `CCOC(=O)COc1ccc(S(=O)(=O)c2ccc(Oc3ccc(S(=O)(=O)C(F)(F)F)cc3[N+](=O)[O-])cc2)cc1` [Example 17, {4-[4-(2-Nitro-4-trifluoromethanesulfonyl-phenoxy)-benzenesulfonyl]-phenoxy}-acetic acid ethyl ester], the half-inhibitory concentration (IC50) on PTP MU (setting [1]), on PTP SHP2 (setting [2]) and on PTP 1B (setting [3]) was over 100 µM each time.
As for `O=S(=O)(Nc1ccc(Oc2ccc(NS(=O)(=O)C(F)(F)F)cc2)cc1)C(F)(F)F` [Example 73, Bis(4-trifluoromethylsulfonamidophenyl) ether], the figures for the IC50 on PTP MU (setting [1]), at PTP SHP2 (setting [2]) and at PTP 1B (setting [3]) were 76.1 µM, over 100 µM and over 100 µM, respectively.
Regarding `O=S(=O)(Nc1ccc(Oc2cccc(Oc3ccc(NS(=O)(=O)C(F)(F)F)cc3)c2)cc1)C(F)(F)F` [Example 74, 1,3-Bis(4-trifluoromethylsulfonamidophenoxy)benzene], the results for the half-maximal inhibitory concentration (IC50) at PTP MU (setting [1]), at PTP SHP2 (setting [2]) and at PTP 1B (setting [3]) were 3.9 µM, 2.8 µM and 7.7 µM, respectively.
As for `O=S(=O)(Nc1ccc(-c2nnc(-c3ccc(NS(=O)(=O)C(F)(F)F)cc3)o2)cc1)C(F)(F)F` [Example 75, 2,5-Bis(4-trifluoromethylsulfonamidophenyl)-(1,3,4)oxadiazole], the IC50 at PTP MU (setting [1]) was 32.4 µM; on PTP SHP2 (setting [2]) it was 8 µM; on PTP 1B (setting [3]), 8.4 µM.
The corresponding values for `CC(C)(c1ccc(NS(=O)(=O)C(F)(F)F)cc1)c1ccc(C(C)(C)c2ccc(NS(=O)(=O)C(F)(F)F)cc2)cc1` [Example 76] are 6.7 µM, 1.8 µM and 2.5 µM.
Consider `Nc1ccc(Oc2ccc(Oc3ccc(N)cc3)cc2)cc1` [NH2], for which the IC50 on PTP MU (setting [4]), at PTP SHP2 (setting [5]) and on PTP 1B (setting [6]) was over 100 µM in each case.
